Experimental data: PubChem BioAssay (NCI)
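Method: 48-hour compound exposure of cells in 96-well plates, five concentrations, linear interpolation of endpoints. GI50: concentration for 50% inhibition of growth. Definition used: TGI = concentration required for complete inhibition of growth.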

How the values were obtained:
Test in all cases: NCI tumour cell line growth inhibition, 48 h
UO-31 renal = system: UO-31 renal
ACHN renal = system: ACHN renal
UACC-257 melanoma = system: UACC-257 melanoma
UACC-62 melanoma = system: UACC-62 melanoma
SF-295 CNS = system: SF-295 CNS
HT29 colon = system: HT29 colon
SN12C renal = system: SN12C renal
OVCAR-3 ovarian = system: OVCAR-3 ovarian
DU-145 prostate = system: DU-145 prostate
RPMI-8226 leukemia = system: RPMI-8226 leukemia

SMILES	TGI (UO-31 renal)	TGI (ACHN renal)	TGI (UACC-257 melanoma)	TGI (UACC-62 melanoma)	TGI (SF-295 CNS)	TGI (HT29 colon)	TGI (SN12C renal)	TGI (OVCAR-3 ovarian)	GI50 (UO-31 renal)	GI50 (ACHN renal)	GI50 (UACC-257 melanoma)	GI50 (UACC-62 melanoma)	GI50 (SF-295 CNS)	GI50 (DU-145 prostate)	TGI (DU-145 prostate)	GI50 (SN12C renal)	GI50 (OVCAR-3 ovarian)	GI50 (RPMI-8226 leukemia)	TGI (RPMI-8226 leukemia)	GI50 (HT29 colon)
O=C(O)C1=C(C(=O)O)Oc2ccccc2O1	> 100 µM	> 100 µM	> 100 µM	> 100 µM	> 100 µM	> 100 µM	> 100 µM	> 100 µM												
CN(C)CCS(=O)(=O)Nc1cc(-c2ccc3ncnc(Nc4ccc(F)c(Cl)c4)c3c2)cnc1Cl	1.69 µM	> 100 µM	6.81 µM	3.4 µM	> 100 µM		> 100 µM	1.2 µM	0.259 µM	0.392 µM	0.775 µM	0.938 µM	0.515 µM	0.566 µM	> 37.3 µM	0.624 µM	0.22 µM	1.04 µM	4.52 µM	
CCOC(=O)C1=CSC2=NC3=C(CCC/C3=C\c3cc(OC)c(OC)c(OC)c3)C(c3cc(OC)c(OC)c(OC)c3)N12 (centres undefined)			> 100 µM	> 100 µM		> 100 µM		> 100 µM			1.73 µM	2.71 µM		3.48 µM	> 100 µM		2.96 µM	0.333 µM	1.67 µM	1.34 µM
CC1=C(C(=O)CC(=O)C(=O)Nc2ccccc2C)Sc2ccccc2N1	> 100 µM	> 100 µM	> 100 µM	> 100 µM	> 100 µM	> 100 µM	> 100 µM	> 100 µM											> 65.5 µM	
O=C(Nc1ccc(Cl)c(C(F)(F)F)c1)C(=O)c1c(O)c2ccccc2oc1=O	> 100 µM	> 100 µM	> 100 µM	> 100 µM	> 100 µM	> 100 µM	> 100 µM	> 100 µM											> 100 µM	
NNC(=O)N/N=C1\CNC(=O)C(=O)C1c1nc2ccccc2s1 (centres undefined)	> 100 µM	> 100 µM	> 100 µM	> 100 µM	> 100 µM	> 100 µM	> 100 µM	> 100 µM											> 100 µM	
O=S(=O)(Cc1ccccc1)SCc1ccccc1	> 100 µM	> 100 µM	76 µM	55.8 µM	65.7 µM	54.1 µM	58 µM	58.5 µM											61.6 µM	
Nc1c(-c2nc3ccccc3s2)[n+]([O-])c2ccccc2[n+]1[O-]	77.7 µM	78 µM	> 100 µM	> 100 µM	72.5 µM	> 100 µM		60.6 µM											89.5 µM	
CCN(CC)C(=O)CCCCCn1c2ccccc2c2c3c(c4c5ccccc5[nH]c4c21)C(=O)N(O)C3=O	4.22 µM		55.1 µM	20.1 µM	55.7 µM	4.44 µM	> 100 µM		1.72 µM		10.7 µM	4.1 µM	6.07 µM	6.5 µM	> 100 µM	4.03 µM		3.06 µM	11.3 µM	2.22 µM
O=C1c2ccoc2C(=O)c2oc(=O)ccc21	14.9 µM	8.43 µM	20.8 µM	31.5 µM	31.5 µM	> 78.8 µM	24.2 µM	8.69 µM											22.2 µM	
Cc1c(C)c2ccc(OC(C)C(=O)O)cc2oc1=O (centres undefined)	> 100 µM	> 100 µM	> 100 µM	> 100 µM	> 100 µM	> 100 µM	> 100 µM	> 100 µM											> 100 µM	
Cn1cc(NC(=O)c2cc(NC(=O)CCCCCCCC(=O)Nc3cc(C(=O)Nc4cc(C(=O)NCCC(=N)N)n(C)c4)n(C)c3)cn2C)cc1C(=O)NCCC(=N)N	> 100 µM	> 100 µM	23.8 µM	36.8 µM	> 100 µM	> 100 µM	41 µM	65.7 µM												
Nc1ncnc2sc(Nc3ccccc3)nc12	> 100 µM	> 100 µM	> 100 µM	> 100 µM	> 100 µM	> 100 µM	> 100 µM	> 100 µM											> 100 µM	
CCOc1ccc(/C=C2/C(=O)N=C(N)N=C2N)cc1OCC	> 100 µM	> 100 µM	> 100 µM	> 100 µM	> 100 µM	> 100 µM	> 100 µM	> 100 µM											> 100 µM	
Nc1nc(-c2ccccc2)cc(-c2cc(Cl)ccc2O)n1	> 100 µM	72.3 µM	> 100 µM	> 100 µM	> 100 µM	> 100 µM	> 100 µM	94.4 µM											> 100 µM	
Cc1cc(OC(=O)c2c(C)cc(OC(=O)c3c(C)cc(O)cc3O)cc2O)cc(O)c1C(=O)O	> 100 µM	> 100 µM	> 100 µM	> 100 µM	> 100 µM	> 100 µM	> 100 µM	> 100 µM											> 100 µM	
O=C(Nc1ccc(Cl)c(Cl)c1)C1C(=O)N(c2ccc(Cl)c(Cl)c2)C(=O)/C1=N\O (centres undefined)	> 100 µM	> 100 µM	> 100 µM	> 100 µM	> 100 µM	> 100 µM	> 100 µM	> 100 µM											> 100 µM	
CN(C)c1ccc2c(c1)OC(N)=C(C#N)C2c1ccc2c(c1)CCCN2C (centres undefined)	78.5 µM	64.6 µM	45.1 µM	33.9 µM	6.51 µM	8.23 µM		10.3 µM	5.15 µM	4.63 µM	10.5 µM	1.55 µM	0.708 µM	3.51 µM	> 100 µM		0.691 µM	4.07 µM	31 µM	2.62 µM
O=C(NN1C(=O)C(Cl)C1c1c(O)ccc2ccccc12)c1ccccc1O (centres undefined)	> 100 µM	> 100 µM	> 100 µM	> 100 µM	> 100 µM	> 100 µM	> 100 µM	> 100 µM												
O=C(Nc1ccc(Br)cc1)Nc1cccc(Br)c1			> 100 µM				> 100 µM				> 100 µM			5.8 µM	> 100 µM	71.8 µM				
CC(C)(C)c1cc(C(OCCl)(C(F)(F)F)C(F)(F)F)c2c(c1)C(C(F)(F)F)(C(F)(F)F)OC21c2ccccc2C(=O)c2ccccc21	> 100 µM	> 100 µM	> 100 µM		> 100 µM	> 100 µM	> 100 µM	> 100 µM											> 100 µM	
